Results taken from ChEMBL document CHEMBL1208707, “T-type calcium channel blockers: spiro-piperidine azetidines and azetidinones-optimization, design and synthesis” (Bioorg Med Chem Lett, 2010).

Legend:
Type in all cases: cell-based
[1] = molecular target: T1, Voltage-dependent T-type calcium channel subunit alpha-1H (Homo sapiens, UniProt O95180); assay: Inhibition of human CaV3.2 expressed in HEK293 cells at -100 mV membrane potential by Ionworks HT assay
[2] = molecular target: Transient receptor potential cation channel subfamily V member 1 (Homo sapiens) (UniProt Q8NER1); assay: Inhibition of TRPV1 expressed in HEK293 assessed as capsaicin activation cells at 3.3 ug/mL by FLIPR assay
Transient receptor potential cation channel subfamily V member 1 (Homo sapiens), sequence (Q8NER1 whole entry): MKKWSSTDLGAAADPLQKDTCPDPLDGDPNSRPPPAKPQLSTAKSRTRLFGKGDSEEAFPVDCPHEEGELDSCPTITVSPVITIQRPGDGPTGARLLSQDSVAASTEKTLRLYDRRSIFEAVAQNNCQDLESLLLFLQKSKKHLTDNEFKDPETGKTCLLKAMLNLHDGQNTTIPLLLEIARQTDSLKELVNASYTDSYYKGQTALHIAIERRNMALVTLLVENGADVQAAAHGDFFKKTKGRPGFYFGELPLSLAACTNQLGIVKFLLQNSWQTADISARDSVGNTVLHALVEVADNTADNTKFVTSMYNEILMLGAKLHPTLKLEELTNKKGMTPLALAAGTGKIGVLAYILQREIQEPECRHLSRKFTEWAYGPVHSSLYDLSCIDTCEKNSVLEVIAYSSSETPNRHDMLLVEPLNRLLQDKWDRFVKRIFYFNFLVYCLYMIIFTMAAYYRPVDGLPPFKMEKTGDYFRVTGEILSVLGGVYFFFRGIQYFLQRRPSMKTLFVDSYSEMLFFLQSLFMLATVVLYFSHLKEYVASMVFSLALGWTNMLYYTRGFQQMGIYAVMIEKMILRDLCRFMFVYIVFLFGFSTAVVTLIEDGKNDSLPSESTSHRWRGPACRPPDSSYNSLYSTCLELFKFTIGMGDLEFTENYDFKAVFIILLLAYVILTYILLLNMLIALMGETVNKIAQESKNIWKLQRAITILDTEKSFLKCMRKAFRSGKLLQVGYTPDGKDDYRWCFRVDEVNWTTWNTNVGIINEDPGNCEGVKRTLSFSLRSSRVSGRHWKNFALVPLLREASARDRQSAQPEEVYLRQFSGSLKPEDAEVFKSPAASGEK

[3] = molecular target: T1, Voltage-dependent T-type calcium channel subunit alpha-1H; assay: Inhibition of human CaV3.2 expressed in HEK293 cells at -100 mV membrane potential by whole cell path clamp method

T1 sequence (O95180 whole entry): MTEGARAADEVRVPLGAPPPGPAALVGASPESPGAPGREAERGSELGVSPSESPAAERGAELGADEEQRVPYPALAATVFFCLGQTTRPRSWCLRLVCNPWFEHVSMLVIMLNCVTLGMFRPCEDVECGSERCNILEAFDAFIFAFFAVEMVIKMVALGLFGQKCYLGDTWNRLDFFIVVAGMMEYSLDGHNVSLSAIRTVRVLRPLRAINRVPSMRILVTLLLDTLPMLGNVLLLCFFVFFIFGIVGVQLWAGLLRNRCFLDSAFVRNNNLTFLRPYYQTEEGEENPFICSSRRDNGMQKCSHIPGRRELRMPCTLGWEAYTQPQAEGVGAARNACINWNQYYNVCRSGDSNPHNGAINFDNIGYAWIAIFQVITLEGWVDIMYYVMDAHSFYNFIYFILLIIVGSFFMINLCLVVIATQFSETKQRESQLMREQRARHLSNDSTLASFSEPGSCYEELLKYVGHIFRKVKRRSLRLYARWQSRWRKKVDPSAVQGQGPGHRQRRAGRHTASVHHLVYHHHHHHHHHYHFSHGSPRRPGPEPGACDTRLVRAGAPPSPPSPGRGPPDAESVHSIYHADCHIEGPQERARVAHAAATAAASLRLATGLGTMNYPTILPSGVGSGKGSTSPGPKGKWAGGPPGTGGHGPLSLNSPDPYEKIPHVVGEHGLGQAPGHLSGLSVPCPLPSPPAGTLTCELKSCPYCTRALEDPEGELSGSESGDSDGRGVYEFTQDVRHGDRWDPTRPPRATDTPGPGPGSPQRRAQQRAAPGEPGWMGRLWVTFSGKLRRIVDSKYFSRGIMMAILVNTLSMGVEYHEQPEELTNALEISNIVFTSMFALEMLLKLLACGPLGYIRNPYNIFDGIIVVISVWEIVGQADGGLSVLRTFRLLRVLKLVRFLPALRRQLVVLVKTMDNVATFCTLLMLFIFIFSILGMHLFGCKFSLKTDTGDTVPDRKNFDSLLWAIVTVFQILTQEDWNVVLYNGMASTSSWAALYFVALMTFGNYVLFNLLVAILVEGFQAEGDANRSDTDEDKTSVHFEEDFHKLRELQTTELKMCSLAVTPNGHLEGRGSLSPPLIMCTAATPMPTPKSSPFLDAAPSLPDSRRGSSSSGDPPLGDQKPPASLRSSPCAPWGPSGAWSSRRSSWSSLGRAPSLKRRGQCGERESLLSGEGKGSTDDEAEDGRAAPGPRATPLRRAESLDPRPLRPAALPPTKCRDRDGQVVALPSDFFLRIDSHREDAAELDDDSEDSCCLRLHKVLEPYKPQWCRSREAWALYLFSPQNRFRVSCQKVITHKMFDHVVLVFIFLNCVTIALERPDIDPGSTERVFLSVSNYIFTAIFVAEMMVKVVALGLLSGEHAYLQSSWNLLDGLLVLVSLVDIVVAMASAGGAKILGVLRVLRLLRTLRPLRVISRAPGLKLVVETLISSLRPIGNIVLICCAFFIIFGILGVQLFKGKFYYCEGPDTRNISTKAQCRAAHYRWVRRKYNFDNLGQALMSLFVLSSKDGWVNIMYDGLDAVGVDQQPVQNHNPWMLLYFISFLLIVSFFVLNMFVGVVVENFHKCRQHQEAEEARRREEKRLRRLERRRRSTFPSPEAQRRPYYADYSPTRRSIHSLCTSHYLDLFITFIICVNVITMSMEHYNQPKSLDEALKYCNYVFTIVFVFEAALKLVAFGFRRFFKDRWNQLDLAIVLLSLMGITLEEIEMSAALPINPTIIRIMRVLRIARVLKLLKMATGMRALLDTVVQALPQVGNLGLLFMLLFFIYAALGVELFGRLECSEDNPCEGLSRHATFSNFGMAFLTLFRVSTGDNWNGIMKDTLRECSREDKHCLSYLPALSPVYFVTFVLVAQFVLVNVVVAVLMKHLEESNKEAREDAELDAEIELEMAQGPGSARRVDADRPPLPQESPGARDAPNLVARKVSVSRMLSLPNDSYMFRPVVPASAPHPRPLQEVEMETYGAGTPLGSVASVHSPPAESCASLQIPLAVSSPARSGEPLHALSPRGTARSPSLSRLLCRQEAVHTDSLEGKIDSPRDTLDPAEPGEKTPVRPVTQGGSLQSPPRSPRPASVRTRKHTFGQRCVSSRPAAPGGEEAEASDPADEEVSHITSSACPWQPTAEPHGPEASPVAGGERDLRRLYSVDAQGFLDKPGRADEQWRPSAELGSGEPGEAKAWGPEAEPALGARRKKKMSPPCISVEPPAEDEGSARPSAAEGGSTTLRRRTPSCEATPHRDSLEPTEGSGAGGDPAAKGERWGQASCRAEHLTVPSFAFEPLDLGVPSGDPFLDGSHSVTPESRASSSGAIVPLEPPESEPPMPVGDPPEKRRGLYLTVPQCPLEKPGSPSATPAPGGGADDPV

SMILES | IC50 [1] | inhibition [2] | IC50 [3]
O=C(Nc1cc(F)cc(F)c1)N1CCC2(CC1)C(=O)N(c1cccc(F)c1)C2c1ccc(Cl)cc1 (stereo in doubt; 36a) [listing 1 of 2 here] | 586 nM |  | 
O=C(Nc1cc(F)cc(F)c1)N1CCC2(CC1)C(=O)N(c1cncc(Cl)c1)C2c1ccccn1 (racemic) |  | 6.7% | 
CC[C@H](C)[C@H](NC(=O)N1CCC2(CC1)C(=O)N(c1cccc(F)c1)C2c1ccc(Cl)cc1)C(=O)OC#N (some centres undefined) | 35 nM |  | 17000 nM
N#Cc1cccc(NC(=O)N2CCC3(CC2)C(=O)N(c2cccc(F)c2)C3c2ccc(Cl)cc2)c1 (stereo in doubt; 37b) [listing 1 of 2 here] | 1060 nM |  | 
CC[C@H](C)[C@H](NC(=O)N1CCC2(CC1)CN(c1cccc(F)c1)C2c1ccc(Cl)cc1)C(=O)OC (stereo in doubt; 22b) [listing 1 of 2 here] |  | 12.5% | 
CC[C@H](C)[C@H](NC(=O)N1CCC2(CC1)CN(c1cccc(F)c1)C2c1ccc(Cl)cc1)C(=O)OC (stereo in doubt; 22a) [listing 1 of 2 here] |  | 8.5% | 
CC[C@H](C)[C@H](NC(=O)N1CCC2(CC1)C(=O)N(c1cccc(F)c1)C2c1ccc(Cl)cc1)C(=O)OC (stereo in doubt; 23a) [listing 1 of 2 here] | 45 nM |  | 109 nM
CC[C@H](C)[C@H](NC(=O)N1CCC2(CC1)C(=O)N(c1cccc(F)c1)C2c1ccc(Cl)cc1)C(=O)OC (stereo in doubt; 23b) [listing 1 of 2 here] |  | 8.79% | 
N#Cc1cccc(NC(=O)N2CCC3(CC2)C(=O)N(c2cccc(Cl)c2)C3c2ccccn2)c1 (stereo in doubt; 43a) |  | 30% | 
O=C(Nc1ccc(F)c(F)c1)N1CCC2(CC1)C(=O)N(c1ccc(F)c(Cl)c1)C2c1ccccn1 (stereo in doubt; 40b) [listing 1 of 2 here] |  | 39% | 
CC[C@H](C)[C@H](NC(=O)N1CCC2(CC1)CN(c1cccc(F)c1)C2c1ccc(Cl)cc1)C(=O)OC (stereo in doubt; 22b) [listing 2 of 2 here] | 3200 nM |  | 
N#Cc1cccc(NC(=O)N2CCC3(CC2)C(=O)N(c2cccc(F)c2)C3c2ccc(Cl)cc2)c1 (stereo in doubt; 37b) [listing 2 of 2 here] |  | 12.7% | 
CCC(C)NC(=O)N1CCC2(CC1)C(=O)N(c1cccc(F)c1)C2c1ccc(Cl)cc1 (centres undefined) | 1250 nM | 5.2% | 
O=C(Nc1ccc(F)c(F)c1)N1CCC2(CC1)C(=O)N(c1cccc(Cl)c1)C2c1ccccn1 (stereo in doubt; 42b) |  | 89% | 
N#Cc1cccc(NC(=O)N2CCC3(CC2)C(=O)N(c2cccc(F)c2)C3c2ccc(Cl)cc2)c1 (stereo in doubt; 37a) |  | 4.79% | 
O=C(Nc1cc(F)cc(F)c1)N1CCC2(CC1)C(=O)N(c1cccc(F)c1)C2c1ccc(Cl)cc1 (stereo in doubt; 36a) [listing 2 of 2 here] |  | 19.3% | 
COC(=O)[C@H](COC(C)(C)C)NC(=O)N1CCC2(CC1)C(=O)N(c1cccc(F)c1)C2c1ccc(Cl)cc1 (some centres undefined) |  | 4.4% | 
COC(=O)[C@H](CO)NC(=O)N1CCC2(CC1)C(=O)N(c1cccc(F)c1)C2c1ccc(Cl)cc1 (some centres undefined) | 3330 nM | 6% | 
O=C(Nc1cc(F)cc(F)c1)N1CCC2(CC1)C(=O)N(C1CC1)C2c1ccc(Cl)cc1 (racemic) | 2260 nM | 34.2% | 
CC[C@H](C)[C@H](NC(=O)N1CCC2(CC1)C(=O)N(c1cccc(F)c1)C2c1ccc(Cl)cc1)C(=O)OC (stereo in doubt; 23b) [listing 2 of 2 here] | 872 nM |  | 
N#Cc1cccc(N2C(=O)C3(CCN(C(=O)Nc4cc(F)cc(F)c4)CC3)C2c2ccccn2)c1 (racemic) | 2380 nM |  | 
CC[C@H](C)[C@H](NC(=O)N1CCC2(CC1)CN(C)C2c1ccc(Cl)cc1)C(=O)OC (mixture of isomers) | 410 nM | 25.2% | 
O=C(Nc1cc(F)cc(F)c1)N1CCC2(CC1)C(=O)N(c1ccc(F)c(Cl)c1)C2c1ccccn1 (stereo in doubt; 39b) | 176 nM |  | 

SMILES | IC50 [1] | inhibition [2] | IC50 [3]
O=C(Nc1cc(F)cc(F)c1)N1CCC2(CC1)CN(c1cccc(F)c1)C2c1ccc(Cl)cc1 (stereo in doubt; 35a) [listing 1 of 2 here] |  | 6.22% | 
CN1CC2(CCN(C(=O)Nc3cc(F)cc(F)c3)CC2)C1c1ccc(Cl)cc1 (racemic) | 214 nM | 25% | 
O=C(Nc1ccc(F)c(F)c1)N1CCC2(CC1)C(=O)N(c1cccc(Cl)c1)C2c1cccc[n+]1[O-] (stereo in doubt; form 2) | 1500 nM |  | 
O=C(Nc1cc(F)cc(F)c1)N1CCC2(CC1)CN(c1cccc(F)c1)C2c1ccc(Cl)cc1 (stereo in doubt; 35b) [listing 1 of 2 here] |  | 30.1% | 
O=C(Nc1cc(F)cc(F)c1)N1CCC2(CC1)C(=O)N(c1cccc(F)c1)C2c1ccc(Cl)cc1 (stereo in doubt; 36b) |  | 6.79% | 
CC[C@H](C)[C@H](NC(=O)N1CCC2(CC1)CN(C(C)C)C2c1ccc(Cl)cc1)C(=O)OC (stereo in doubt; 2) |  | 87.1% | 
O=C(Nc1cccc(C(F)(F)F)c1)N1CCC2(CC1)C(=O)N(c1ccc(F)c(F)c1)C2c1ccccn1 (stereo in doubt; 41a) | 17 nM |  | 
O=C(Nc1cc(F)cc(F)c1)N1CCC2(CC1)C(=O)N(c1cccc(Cl)c1)C2c1ccccn1 (stereo in doubt; 44a) |  | 38% | 
CC[C@H](C)[C@H](NC(=O)N1CCC2(CC1)CN(C(C)C)C2c1ccc(Cl)cc1)C(=O)OC (stereo in doubt; 2a) | 115 nM |  | 124 nM
O=C(Nc1ccc(F)c(F)c1)N1CCC2(CC1)C(=O)N(c1ccc(F)c(Cl)c1)C2c1ccccn1 (stereo in doubt; 40b) [listing 2 of 2 here] | 402 nM |  | 
O=C(Nc1ccc(F)c(F)c1)N1CCC2(CC1)C(=O)N(c1ccc(F)c(Cl)c1)C2c1ccccn1 (stereo in doubt; 40a) |  | 48% | 
CC[C@H](C)[C@H](NC(=O)N1CCC2(CC1)C(=O)N(c1cccc(F)c1)C2c1ccc(Cl)cc1)C(=O)OC (stereo in doubt; 23a) [listing 2 of 2 here] |  | 6.18% | 
CC[C@H](C)[C@H](NC(=O)N1CCC2(CC1)CN(C(C)C)C2c1ccc(Cl)cc1)C(=O)OC (stereo in doubt; 2b) | 733 nM |  | 3200 nM
CC[C@H](C)[C@H](NC(=O)N1CCC2(CC1)C(=O)N(c1cccc(F)c1)C2c1ccc(Cl)cc1)C(=O)OC(C)C (some centres undefined) |  | 18% | 
CC[C@H](C)[C@H](NC(=O)N1CCC2(CC1)C(=O)N(C)C2c1ccc(Cl)cc1)C(=O)OC (mixture of isomers) | 800 nM | 3.12% | 
O=C(Nc1cc(F)cc(F)c1)N1CCC2(CC1)CN(c1cccc(F)c1)C2c1ccc(Cl)cc1 (stereo in doubt; 35a) [listing 2 of 2 here] | 3500 nM |  | 
CC[C@H](C)[C@H](NC(=O)N1CCC2(CC1)CN(C1CC1)C2c1ccc(Cl)cc1)C(=O)OC (mixture of isomers) | 325 nM |  | 713 nM
CC(C)CN1CC2(CCN(C(=O)Nc3cc(F)cc(F)c3)CC2)C1c1ccc(Cl)cc1 (racemic) | 177 nM | 53% | 
CC[C@H](C)[C@H](NC(=O)N1CCC2(CC1)CN(c1cccc(F)c1)C2c1ccc(Cl)cc1)C(=O)OC (stereo in doubt; 22a) [listing 2 of 2 here] | 146 nM |  | 
N#Cc1cccc(N2C(=O)C3(CCN(C(=O)Nc4cc(F)cc(F)c4)CC3)C2c2ccccn2)c1 (centres undefined) |  |  | 19300 nM
CC[C@H](C)[C@H](NC(=O)N1CCC2(CC1)CN(C(C)C)C2c1ccc(F)cc1)C(=O)OC (mixture of isomers) | 256 nM | 13.4% | 
CC[C@H](C)[C@H](NC(=O)N1CCC2(CC1)C(=O)N(c1cccc(F)c1)C2c1ccc(Cl)cc1)C(=O)NC (some centres undefined) |  | 4.8% | 
O=C(Nc1cc(F)cc(F)c1)N1CCC2(CC1)CN(c1cccc(F)c1)C2c1ccc(Cl)cc1 (stereo in doubt; 35b) [listing 2 of 2 here] | 3200 nM |  | 
